# Source: patent US9271971B2, “Pyrido[3,4-B]indoles and methods of use” (Medivation Technologies, Inc., priority 2009, dated 2016)
# Columns and labels:
# [1] = target: human recombinant serotonin (5-Hydroxytryptamine) 5-HT7 receptor (Homo sapiens, UniProt P34969); assay: Serotonin 5-HT7 radioligand binding assay; conditions: [3H]LSD specific binding; for inhibition at 1 µM: read-out: Percent Inhibition of ligand binding, Serotonin (1 μM ligand concentration) 5-HT7
# Method: To evaluate in radioligand binding assays the activity of compounds of the invention, human recombinant serotonin (5-Hydroxytryptamine) 5-HT7 receptor expressed in Chinese hamster ovary (CHO) cells [Roth, B. L. et al., J. Pharmacol. Exp. Ther. (1994), 268:1403; Shen, Y. et al., J. Biol. Chem. (1993), 268:18200] in a modified Tris-HCl buffer (50 mM Tris-HCl, pH 7.4, 10 mM MgCl2, 0.5 mM EDTA) was used. Compounds of invention were incubated with 5.5 nM [^3H] Lysergic acid diethylamide (LSD) for 2 h at 25° C. Non-specific binding was estimated in the presence of 10 μM Serotonin (5-HT). Receptor proteins were filtered and washed, the filters were then counted to determine [^3H]LSD specifically bound. Compounds were screened at 1 μM or lower, using 1% DMSO as vehicle. Biochemical assay results are presented as the percent inhibition of specific binding in Table 4.
# [2] = target: T1, human recombinant adrenergic α2A receptor (Homo sapiens, UniProt P08913); assay: Adrenergic α2A radioligand binding assay; conditions: [3H]MK-912 specific binding; for inhibition at 1 µM: read-out: Percent Inhibition of ligand binding, Adrenergic (1 μM ligand conc.) α2A; for inhibition at 0.1 µM: read-out: Percent Inhibition of ligand binding, Adrenergic (0.1 μM ligand conc.) α2A
# T1 construct: expressed in transfected cells; host or cells: insect Sf9 cells
# T1 sequence (P08913 1-465): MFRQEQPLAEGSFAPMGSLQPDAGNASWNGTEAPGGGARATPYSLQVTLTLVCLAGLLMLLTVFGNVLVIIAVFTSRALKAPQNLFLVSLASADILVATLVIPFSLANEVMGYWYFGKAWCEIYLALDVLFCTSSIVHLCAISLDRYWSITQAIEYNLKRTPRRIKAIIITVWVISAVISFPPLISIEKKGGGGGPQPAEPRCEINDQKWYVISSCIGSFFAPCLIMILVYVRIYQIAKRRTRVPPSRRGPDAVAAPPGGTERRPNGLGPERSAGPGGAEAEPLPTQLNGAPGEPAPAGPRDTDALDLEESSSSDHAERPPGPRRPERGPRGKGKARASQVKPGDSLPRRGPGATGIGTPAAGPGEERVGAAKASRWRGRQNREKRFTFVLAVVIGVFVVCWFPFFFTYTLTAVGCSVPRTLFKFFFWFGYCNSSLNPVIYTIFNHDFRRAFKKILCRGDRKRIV
# Method: To evaluate in radioligand binding assays the activity of compounds of the invention, human recombinant adrenergic α2A receptor expressed in insect Sf9 cells [Uhlen, S et al. J. Pharmacol. Exp. Ther. (1994), 271:1558] in a modified Tris-HCl buffer (50 mM Tris-HCl, pH 7.4, 12.5 mM MgCl2, 2 mM EDTA) was used. Compounds of invention were incubated with 1 nM [^3H]MK-912 for 60 min. at 25° C. MK912 was (2S-trans)-1,3,4,5′,6,6′,7,12b-octahydro-1′,3′-dimethyl-spiro[2H-benzofuro[2,3-a]quinolizine-2,4′(1′H)-pyrimidin]-2′(3′H)-one hydrochloride Non-specific binding was estimated in the presence of 10 μM WB-4101 (2-(2,6-dimethoxyphenoxyethyl)aminomethyl-1,4-benzodioxane hydrochloride). Receptor proteins were filtered and washed, the filters were then counted to determine [^3H]MK-912 specifically bound. Compounds were screened at 1 μM or lower, using 1% DMSO as vehicle. Compounds of the invention were tested in this biochemical assay. Biochemical assay results for representative compounds were presented as the percent inhibition of specific binding in Table 3.
# [3] = target: T2, rat adrenergic α1A receptor (Rattus norvegicus, UniProt P43140); assay: Adrenergic α1A radioligand binding assay; conditions: [3H]Prozosin specific binding, read-out: Percent Inhibition of ligand binding, Adrenergic (0.1 μM ligand conc.) α1A
# T2 construct: rat adrenergic α1A receptor obtained from Wistar Rat submaxillary glands; from tissue; host or cells: Wistar Rat submaxillary glands
# T2 sequence (P43140 1-466): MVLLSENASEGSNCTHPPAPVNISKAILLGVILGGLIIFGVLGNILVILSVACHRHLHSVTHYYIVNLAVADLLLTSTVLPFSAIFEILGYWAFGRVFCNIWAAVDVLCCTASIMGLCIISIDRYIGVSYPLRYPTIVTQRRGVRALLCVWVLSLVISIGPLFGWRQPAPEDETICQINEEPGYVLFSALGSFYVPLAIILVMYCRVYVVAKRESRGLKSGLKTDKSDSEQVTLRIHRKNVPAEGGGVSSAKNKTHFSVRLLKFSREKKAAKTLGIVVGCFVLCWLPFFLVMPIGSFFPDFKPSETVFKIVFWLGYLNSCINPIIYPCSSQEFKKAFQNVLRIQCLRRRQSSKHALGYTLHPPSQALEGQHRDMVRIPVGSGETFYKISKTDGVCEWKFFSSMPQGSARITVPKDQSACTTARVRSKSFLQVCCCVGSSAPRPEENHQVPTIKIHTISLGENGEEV
# Method: To evaluate in radioligand binding assays the activity of compounds of the invention, rat adrenergic α1A receptor obtained from Wistar Rat submaxillary glands (Michel, A. D. et al., Br. J. Pharmacol. (1989), 98:883] in a modified Tris-HCl buffer (50 mM Tris-HCl buffer, pH 7.4, 0.5 mM EDTA) was used. Compounds of the invention were incubated with 0.25 nM [^3H]Prozosin for 60 min. at 25° C. Non-specific binding was estimated in the presence of 10 μM phentolamine. Receptor proteins were filtered and washed, the filters were then counted to determine [^3H]Prozosin specifically bound. Compounds of the invention were screened at 1 μM or lower, using 1% DMSO as vehicle. Compounds of the invention were tested in this biochemical assay. Biochemical assay results for representative compounds were presented as the percent inhibition of specific binding in Table 3.
# Sequence of human recombinant serotonin (5-Hydroxytryptamine) 5-HT7 receptor (P34969 whole entry): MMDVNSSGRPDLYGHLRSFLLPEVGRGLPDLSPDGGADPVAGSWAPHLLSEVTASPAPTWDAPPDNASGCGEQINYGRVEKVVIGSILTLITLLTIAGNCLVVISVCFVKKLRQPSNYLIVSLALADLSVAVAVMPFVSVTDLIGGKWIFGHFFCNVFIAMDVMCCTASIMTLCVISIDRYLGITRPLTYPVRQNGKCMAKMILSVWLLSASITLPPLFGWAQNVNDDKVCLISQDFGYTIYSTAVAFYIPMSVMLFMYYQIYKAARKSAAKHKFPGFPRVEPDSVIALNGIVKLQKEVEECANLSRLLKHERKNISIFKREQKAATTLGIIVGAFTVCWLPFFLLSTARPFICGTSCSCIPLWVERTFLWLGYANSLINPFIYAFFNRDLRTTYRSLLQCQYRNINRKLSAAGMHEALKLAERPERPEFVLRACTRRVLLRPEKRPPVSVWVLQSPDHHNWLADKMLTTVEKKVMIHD
SMILES,inhibition at 1 µM [1] [%],inhibition at 1 µM ([2]; 1 μM) [%],other results
COc1ccc(/C(C)=C/n2c3c(c4cc(C)ccc42)C2CCN(C3)C2)cc1F (stereo not shown) [Compound 41],90,,
Cc1ccc2c(c1)c1c(n2CC(C)(O)c2ccc(F)cc2)CN2CCC1C2 (stereo not shown) [Compound 2],,54,
C/C(=C\n1c2c(c3cc(C)ccc31)C1CCN(C2)C1)c1ccc(Cl)cc1 (stereo not shown) [Compound 32],96,96,inhibition at 0.1 µM [2]: 45%; inhibition at 0.1 µM [3]: 36%
Cc1ccc2c(c1)c1c(n2CC(=O)c2ccccc2)CN2CCC1C2 (stereo not shown) [Compound 21],,5,
Cc1ccc2c(c1)c1c(n2CCc2ccc(C(F)(F)F)nc2)CN2CCC1C2 (stereo not shown) [Compound 1],,25,
Cc1ccc2c(c1)c1c(n2CC(=O)c2ccc(F)cc2)CN2CCC1C2 (stereo not shown) [Compound 28],82,86,
COc1ccc(C(O)Cn2c3c(c4cc(C)ccc42)C2CCN(C3)C2)cc1F (stereo not shown) [Compound 6],,23,
Cc1ccc2c(c1)c1c(n2CC(C)(O)c2ccc(F)c(Cl)c2)CN2CCC1C2 (stereo not shown) [Compound 18],,30,
C/C(=C\n1c2c(c3cc(C)ccc31)C1CCN(C2)C1)c1ccc(Cl)cc1Cl (stereo not shown) [Compound 34],,,"Percent Inhibition of ligand binding, Adrenergic (1 μM ligand conc.) α2A ([2]; 1 μM): 48%; Percent Inhibition of ligand binding, Serotonin (1 μM ligand concentration) 5-HT7 [1]: 86%"
Cc1ccc(C(O)Cn2c3c(c4cc(C)ccc42)C2CCN(C3)C2)cc1 (stereo not shown) [Compound 5],,44,
Cc1ccc2c(c1)c1c(n2C(=O)Cc2ccc(F)cc2)CN2CCC1C2 (stereo not shown) [Compound 43],41,,
COc1ccc(/C(C)=C/n2c3c(c4cc(C)ccc42)C2CCN(C3)C2)cc1 (stereo not shown) [Compound 45],93,,inhibition at 0.1 µM [2]: 4%; inhibition at 0.1 µM [3]: 24%
C/C(=C/n1c2c(c3cc(C)ccc31)C1CCN(C2)C1)c1ccccc1F (stereo not shown) [Compound 37],93,,
Cc1ccc2c(c1)c1c(n2CCc2nc(-c3ccccc3)cs2)CN2CCC1C2 (stereo not shown) [Compound 19],,-10,
Cc1ccc2c(c1)c1c(n2CC(=O)c2ccc(Cl)cc2)CN2CCC1C2 (stereo not shown) [Compound 29],81,89,
Cc1ccc(C(C)(O)Cn2c3c(c4cc(C)ccc42)C2CCN(C3)C2)cc1 (stereo not shown) [Compound 20],,28,
C/C(=C\n1c2c(c3cc(C)ccc31)C1CCN(C2)C1)c1ccc(F)cc1 (stereo not shown) [Compound 22],,93,
Cc1ccc2c(c1)c1c(n2CC(=O)N2CCOCC2)CN2CCC1C2 (stereo not shown) [Compound 26],,-4,
C/C(=C\n1c2c(c3cc(C)ccc31)C1CCN(C2)C1)c1ccc(Cl)cc1Cl (stereo not shown) [Compound 33],96,66,inhibition at 0.1 µM [2]: 13%; inhibition at 0.1 µM [3]: 3%
Cc1ccc2c(c1)c1c(n2CCc2ccncc2)CN2CCC1C2 (stereo not shown) [Compound 30],95,84,
Cc1ccc2c(c1)c1c(n2CCc2cncc(F)c2)CN2CCC1C2 (stereo not shown) [Compound 9],,2,
C/C(=C\n1c2c(c3cc(C)ccc31)C1CCN(C2)C1)c1ccc(Cl)c(Cl)c1 (stereo not shown) [Compound 40],95,,
Cc1ccc2c(c1)c1c(n2CC(O)c2ccc(F)cc2)CN2CCC1C2 (stereo not shown) [Compound 31],73,41,

SMILES,inhibition at 1 µM [1] [%],inhibition at 1 µM ([2]; 1 μM) [%],other results
Cc1ccc2c(c1)c1c(n2CC(C)(O)c2ccc(Cl)cc2)CN2CCC1C2 (stereo not shown) [Compound 16],,28,
Cc1ccc2c(c1)c1c(n2CC(=O)N2CCCCC2)CN2CCC1C2 (stereo not shown) [Compound 7],,9,
Cc1ccc2c(c1)c1c(n2C(=O)Cc2ccc(Cl)cc2)CN2CCC1C2 (stereo not shown) [Compound 36],75,,inhibition at 0.1 µM [2]: 24%; inhibition at 0.1 µM [3]: -18%
C/C(=C\n1c2c(c3cc(C)ccc31)C1CCN(C2)C1)c1ccccc1F (stereo not shown) [Compound 38],95,,inhibition at 0.1 µM [2]: 3%; inhibition at 0.1 µM [3]: 14%
Cc1ccc2c(c1)c1c(n2CC(O)c2ccccc2)CN2CCC1C2 (stereo not shown) [Compound 4],,54,
Cc1ccc2c(c1)c1c(n2CC(=O)N2CCC(C)CC2)CN2CCC1C2 (stereo not shown) [Compound 25],,-7,
Cc1ccc2c(c1)c1c(n2C#Cc2ccc(Cl)cc2)CN2CCC1C2 (stereo not shown) [Compound 35],35,,
Cc1ccc2c(c1)c1c(n2CC(C)(O)c2ccc(F)c(F)c2)CN2CCC1C2 (stereo not shown) [Compound 15],,21,
Cc1ccc2c(c1)c1c(n2CCc2ccccn2)CN2CCC1C2 (stereo not shown) [Compound 11],,-15,
Cc1ccc2c(c1)c1c(n2CC(=O)NC2CCCCC2)CN2CCC1C2 (stereo not shown) [Compound 23],,-13,
Cc1ccc(/C=C/n2c3c(c4cc(C)ccc42)C2CCN(C3)C2)cc1 (stereo not shown) [Compound 10],,38,
Cc1ccc2c(c1)c1c(n2CCc2ccc(C)nc2)CN2CCC1C2 (stereo not shown) [Compound 12],,-4,
C/C(=C\n1c2c(c3cc(C)ccc31)C1CCN(C2)C1)c1ccc(F)c(F)c1 (stereo not shown) [Compound 39],96,,
Cc1ccc2c(c1)c1c(n2CC(=O)N2CCNCC2)CN2CCC1C2 (stereo not shown) [Compound 24],,4,
Cc1ccc2c(c1)c1c(n2CC(C)(O)c2ccc(Cl)cc2Cl)CN2CCC1C2 (stereo not shown) [Compound 14],,18,
C=C(Cn1c2c(c3cc(C)ccc31)C1CCN(C2)C1)c1ccc(F)cc1 (stereo not shown) [Compound 3],,93,
C/C(=C\n1c2c(c3cc(C)ccc31)C1CCN(C2)C1)c1ccncc1 (stereo not shown) [Compound 44],80,,inhibition at 0.1 µM [2]: -5%; inhibition at 0.1 µM [3]: -7%
COc1ccc(C(O)Cn2c3c(c4cc(C)ccc42)C2CCN(C3)C2)cc1OC (stereo not shown) [Compound 8],,1,
Cc1ccc2c(c1)c1c(n2CC(=O)N(C)C)CN2CCC1C2 (stereo not shown) [Compound 27],,5,
Cc1ccc2c(c1)c1c(n2CC(C)(O)c2ccc(Cl)c(Cl)c2)CN2CCC1C2 (stereo not shown) [Compound 13],,39,
Cc1ccc2c(c1)c1c(n2CC(C)(O)c2ccc(F)cc2F)CN2CCC1C2 (stereo not shown) [Compound 17],,4,
C/C(=C\n1c2c(c3cc(C)ccc31)C1CCN(C2)C1)c1cccnc1 (stereo not shown) [Compound 42],92,,
